Patent US8779132B2, “Pharmaceutical compounds” (Astex Therapeutics Limited, priority 2006, dated 2014)
Counter-ions that a name gives are not always drawn.

How the values were obtained:
[1] = Plasma stability studies; assay type: in vitro ADME; settings: mouse plasma, 37° C., approximately 1 hour
Method: The ease with which pro-drug compounds of the invention can be converted to the active moiety can be assessed by measuring the in vitro plasma stability of the compounds. The method is based on the ability of plasma enzymes to metabolise compounds to the active moiety. Compounds are added to plasma and incubated at 37° C. for approximately 1 hour. Aliquots of plasma are removed at timed intervals and the compound extracted by the addition of acetonitrile containing an internal standard. All extracts are then analysed for parent compound, the active moiety and the internal standard using a compound specific LCMS-MS assay. Stability is measured by comparison of the peak area ratio of the parent compound and internal standard at time zero with the peak area ratio of the parent compound and internal standard in the incubated samples. Generation of the active moiety in samples is also assessed.

[2] = tested on: HCT116 cell line; test: Anti-proliferative activity, Alamar Blue assay; assay type: cell-based; settings: Homo sapiens, HCT-116, 72 h
Method: The anti-proliferative activities of compounds of the invention can be determined by measuring the ability of the compounds to inhibition of cell growth in a number of cell lines such as the human colon cancer cell line HCT116. […] The method is based on the ability of viable cells to reduce resazurin to its fluorescent product resorufin. […] The number of viable cells is determined by Alamar Blue assay as before. Cell lines can be obtained from the ECACC (European Collection of cell Cultures).

Row | SMILES | generation of the active moiety (2,4-dihydroxy-5-isopropyl-phenyl)-[5-(4-methyl-piperazin-1-yl)-1,3-dihydro-isoindol-2-yl]-methanone [1] | in vitro plasma stability [1] | IC50 [2] [nM]
1 | CC(C)c1cc(C(=O)N2Cc3ccc(N4CCN(C)CC4)cc3C2)c(OC(=O)C(C)(C)C)cc1OC(=O)C(C)(C)C [Example 85, 2,2-dimethyl-propionic acid 5-(2,2-dimethyl-propionyloxy)-4-isopropyl-2-[5-(4-methyl-piperazin-1-yl)-1,3-dihydro-isoindole-2-carbonyl]-phenyl ester] | formed the active moiety | range of stabilities | –
2 | CC(C)c1cc(C(=O)N2Cc3ccc(N4CCN(C)CC4)cc3C2)c(OC(=O)N(C)C)cc1OC(=O)N(C)C [Example 86, dimethyl-carbamic acid 5-dimethylcarbamoyloxy-2-isopropyl-4-[5-(4-methyl-piperazin-1-yl)-1,3-dihydro-isoindole-2-carbonyl]-phenyl ester] | formed the active moiety | range of stabilities | –
3 | CC(C)c1cc(C(=O)N2Cc3ccccc3C2)c(O)cc1O [Example 5, (1,3-Dihydro-isoindol-2-yl)-(2,4-dihydroxy-5-isopropyl-phenyl)-methanone] | – | – | < 1000
4 | CC(C)c1cc(C(=O)N2Cc3ccc(C(=O)N4CCNCC4)cc3C2)c(O)cc1O [Example 54, (2,4-dihydroxy-5-isopropyl-phenyl)-[5-(piperazine-1-carbonyl)-1,3-dihydro-isoindol-2-yl]-methanone hydrochloride] | – | – | < 1000
5 | CC(=O)Oc1cc(OC(C)=O)c(C(C)C)cc1C(=O)N1Cc2ccc(N3CCN(C)CC3)cc2C1 [Example 84, acetic acid 5-acetoxy-4-isopropyl-2-[5-(4-methyl-piperazin-1-yl)-1,3-dihydro-isoindole-2-carbonyl]-phenyl ester] | formed the active moiety | range of stabilities | –
